Consider one compound from patent publication US7253177B2, “Synthesis and antimalarial activity of pyrrolo[3,2-f]quinazoline-1,3-diamine derivatives” (United States of America as Represented by the Secretary of …, priority 2004, dated 2007).

In series [1] the test system is Plasmodium yoelii (17x) sporozoites. The series is described as follows: Sporozoite induced test in mice. Format: in vivo. The conditions noted are these: P. yoelii; for Number of Mice Cured: oral. As for the experimental part: B. Antimalarial Activities: (a). In Vitro Antimalarial Studies. The in vitro assays were conducted by using a modification of the semiautomated microdilution technique of Desjardins et al and Chulay et al.. Four P. falciparum malaria parasite clones, from CDC Indochina III (W-2), CDC Sierra Leone I (D-6), Southeast Asia Isolates (TM91C235) and RCS (Isolates from Brazil) were utilized in susceptibility testing. They were derived by direct visualization and micromanipulation from patient isolates. The W-2 clone is susceptible to mefloquine but resistant to chloroquine, sulfadoxine, pyrimethamine, and quinine, whereas the D-6 clone is naturally resistant to mefloquine but susceptible to chloroquine, sulfadoxine, pyrimethamine and quinine. Test compounds were initially dissolved in DMSO and diluted 400 fold in RPMI 1640 culture medium supplemented with 25 mM Hepes, 32 mM NaHCO3 and 10% Albumax I (Gibco BRL, Grand Island, N.Y.). These solutions were subsequently serially diluted two-fold with a Biomek 1000 (Beckman, Fullerton, Calif.) over 11 different concentrations. The parasites were exposed to serial dilutions of each compound for 48 hrs and incubated at 37° C. with 5% O2, 5% CO2 and 90% N2 prior to the addition of [^3H]hypoxanthine. After a further incubation of 18 hrs, parasite DNA was harvested from each microtiter well using Packard Filtermate 196 Harvester (Meriden, Conn.) onto glass filters. Uptake of [^3H]hypoxanthine was measured with a Packard Topcount Scintillation. Concentration-response data were analyzed by a non-linear regression logistic dose response model and the IC50 values (50% inhibitory concentrations) for each compound were calculated. (Table 3). (b). In Vivo Antimalarial Studies against P. berghei in mice: The in vivo efficacy of the artelinic acid analogs were determined in a modified Thompson test. This test measures the survivability of mice and parasitemia clearance following administration of drug on days 3-5 post infection. In brief, 5×10^6 P. berghei-infected erythrocytes (KBG-173 strain) were inoculated intraperitoneally to female mice that weighed 24-30 g. By day three post-infection, parasitemia ranged from 1.0-3.7%. Each drug, dissolved in 5% sodium bicarbonate, was administered PO twice daily from day 3-5 post-infection. Total doses for each drug ranged from 1.5-384 mg/kg with 8 mice included in each dosage group. The percent suppression of parasitemia in the treated mice compared to the untreated controls was determined for each test compound; the SD-50 (fifty percent suppression dose) and SD-90 were determined from a non-linear regression logistic dose response fit at day 6 parasitemia data. Survival of mice to day 60 post-infection was considered a cure (C). Compounds were considered active (A) when the survival time of the treated mice was greater than twice the control mice, i.e., 12-14 day (Table 4-5). (c). Sporozoite Induced Test Each compound is ground with a mortar & pestle and suspended in 0.5% hydroxyethylcellulose—0.1% Tween 80 for compounds to be administered PO and those given SC are suspended in peanut oil. Each compound is prepared at 3 different dose levels as requested by WRAIR. Compounds are administered either PO or SC to mice once 4 hr before inoculation of sporozoites. Four-week-old male CD-1 mice, purchased from Charles River and weighing 16-17 g, are placed 5 per cage and allowed to acclimate for 4 days before being treated and then inoculated with sporozoites. They are fed food and water ad-lib and maintained at 76° F. with 12 hr light and 12 hr darkness. The cages and water bottles are changed biweekly. The mice are weighed on Days 0, 3 and 6 then biweekly when blood films are taken. Plasmodium yoelii (17×) is used to infect mice that will be used to infect the mosquitoes. […] Whole body weights are taken on Day 0 and Day 6 then twice a week for 31 days. A blood film is taken on Day 5 and then twice a week for 31 days. Mice loosing >20% of their body weight will be sacrificed. […]

Series [2] in a line: Host toxicity in animal models (general statements). Type of series: in vivo. The conditions noted are these: any dose, all species of animal models studied.

Structures are written as SMILES.

In series [1] (dose groups from 0.625 to 40 mg/kg), `CC(=O)N(C(C)=O)c1nc(N(C(C)=O)C(C)=O)c2c(ccc3c2ccn3Cc2ccccc2C(F)(F)F)n1` [Compound 3e, 1,3-Bis(diacetylamino)-7-(2-trifluoromethyl)benzyl-7H-pyrrolo[3,2-f]quinazoline] returned a mice cured of 100%. Moreover, the “parasitemia formation in sporozoite challenged mouse” value in series [1] (doses from 0.65 to 40 mg/kg given orally for 3 consecutive days) was “completely prevented parasitemia formation”. Moreover, the “Number of Mice Cured” value in series [1] (0.15625 mg/kg) was 4/5; in series [1] (0.3125 mg/kg), 4/5; in series [1] (0.625 mg/kg), 5/5; in series [1] (2.5 mg/kg), 5/5; in series [1] (10 mg/kg), 5/5; in series [1] (40 mg/kg) it was 5/5. For the same compound, in series [2], the “host toxicity in efficacy studies” value is “No host toxicity”.
